Source: ChEMBL document CHEMBL5584357, “Corannulene Amino Acid-Derived Water-Soluble Amphiphilic Buckybowls as Broad-Spectrum Membrane Targeting Antibacterial Agents” (J Med Chem, 2024)
In brackets after ≈: the same amount, converted by molar mass. Activity calls are given as the source filed them. The rule behind the calls is not given here.

What was measured:
[1] = Hemolytic activity against human RBCs upto 100 uM incubated for 45 mins by absorbance based assay; type: toxicity, cell-based, Erythrocyte; details: red blood cells (erythrocytes), read-out: Activity
Pseudomonas aeruginosa = test: Antibacterial activity against Pseudomonas aeruginosa ATCC BAA-427 incubated for 16 to 18 hrs by broth microdilution method; type: functional; details: time 16-18 hrs
Staphylococcus aureus [2] = test: Antibacterial activity against Staphylococcus aureus ATCC 25923 incubated for 16 to 18 hrs by broth microdilution method; type: functional; details: time 16-18 hrs
Staphylococcus aureus [3] = test: Induction of cell membrane damage in Staphylococcus aureus ATCC 25923 at 1 to 5 times MIC by SYTOX green fluorescence based analysis; type: functional, organism-based
Staphylococcus aureus [4] = test: Antibacterial activity against methicillin-resistant Staphylococcus aureus ATCC BAA-44 incubated for 16 to 18 hrs by broth microdilution method; type: functional; details: time 16-18 hrs
Escherichia coli [5] = test: Bactericidal activity against Escherichia coli ATCC 25922 incubated for 16 hrs; type: functional
Escherichia coli [6] = test: Induction of cell membrane damage in Escherichia coli ATCC 25922 at 1 to 5 times MIC by SYTOX green fluorescence based analysis; type: functional, organism-based
Acinetobacter baumannii = test: Antibacterial activity against Acinetobacter baumanni ATCC 19606 incubated for 16 to 18 hrs by broth microdilution method; type: functional; details: time 16-18 hrs
Staphylococcus aureus [7] = test: Induction of cell membrane damage in Staphylococcus aureus ATCC 25923 at 5 times MIC incubated for 60 mins by PI staining based FACS analysis; type: functional, organism-based
[8] = Cytotoxicity against mouse 3T3-L1 cells assessed as cell viability upto 60 uM incubated for 4 hrs by MTT assay relative to control; type: toxicity, cell-based; details: read-out: Activity
Escherichia coli [9] = test: Antibacterial activity against Escherichia coli ATCC 25922 incubated for 16 to 18 hrs by broth microdilution method; type: functional; details: time 16-18 hrs
Escherichia coli [10] = test: Induction of cell membrane damage in Escherichia coli ATCC 25922 at 5 times MIC incubated for 60 mins by PI staining based FACS analysis; type: functional, organism-based
Staphylococcus aureus [11] = test: Bactericidal activity against Staphylococcus aureus ATCC 25923 incubated for 16 hrs; type: functional
Staphylococcus aureus [12] = test: Antibacterial activity against methicillin-resistant Staphylococcus aureus ATCC 33591 incubated for 16 to 18 hrs by broth microdilution method; type: functional; details: time 16-18 hrs
Staphylococcus aureus [13] = test: Induction of cell membrane damage in Staphylococcus aureus ATCC 25923 assessed as membrane distortion at 5 times MIC incubated for 60 mins by SEM analysis; type: functional, organism-based
Staphylococcus aureus [14] = test: Induction of cell membrane damage in Staphylococcus aureus ATCC 25923 assessed as bacterial content leakage at 5 times MIC incubated for 60 mins by SEM analysis; type: functional, organism-based
Escherichia coli [15] = test: Induction of cell membrane damage in Escherichia coli ATCC 25922 assessed as wrinkling on bacterial surface at 5 times MIC incubated for 60 mins by SEM analysis; type: functional, organism-based
Escherichia coli [16] = test: Induction of cell membrane damage in Escherichia coli ATCC 25922 assessed as membrane blebbing at 5 times MIC incubated for 60 mins by SEM analysis; type: functional, organism-based
Staphylococcus aureus [17] = test: Induction of cell membrane damage in Staphylococcus aureus ATCC 25923 assessed as membrane blebbing at 5 times MIC incubated for 60 mins by SEM analysis; type: functional, organism-based
Staphylococcus aureus [18] = test: Antimicrobial activity against methicillin-resistant Staphylococcus aureus; type: functional, organism-based
Staphylococcus aureus [19] = test: Antimicrobial activity against vancomycin-resistant Staphylococcus aureus; type: functional, organism-based
Staphylococcus aureus [20] = test: Antibacterial activity against Staphylococcus aureus ATCC 25923 infected in BALB/c mouse assessed as bacterial load in blood at 30 mg/kg, ip measured after 18 hrs (Rvb ~ 6 x10^6); type: functional
Erythrocyte = test: Hemolytic activity against human RBCs upto 70 uM incubated for 45 mins by absorbance based assay; type: toxicity, cell-based; details: 0.75 h
[21] = Acute toxicity in BALB/c mouse assessed as signs of toxicity at 50 mg/kg, ip measured for 7 days; type: organism-based; details: in vivo, 168 h, time 7 day
Staphylococcus aureus [22] = test: Bactericidal activity against Staphylococcus aureus VRS1 at 1 to 4 times MIC by time kill assay; type: functional, organism-based; details: time <= 24.0 hrs
Staphylococcus aureus [23] = test: Antibacterial activity against Staphylococcus aureus ATCC 25923 infected in BALB/c mouse assessed as bacterial load in liver at 30 mg/kg, ip measured after 18 hrs (Rvb ~ 1.75 x10^7); type: functional
Staphylococcus aureus [24] = test: Bactericidal activity against Staphylococcus aureus VRS1 at 4 times MIC incubated for 6 hrs by time kill assay relative to control; type: functional
Staphylococcus aureus [25] = test: Antibacterial activity against Staphylococcus aureus ATCC 25923 infected in BALB/c mouse assessed as bacterial load in lung at 30 mg/kg, ip measured after 18 hrs (Rvb ~ 5 x10^6); type: functional
[26] = Acute toxicity in BALB/c mouse assessed as animal survival at 50 mg/kg, ip measured for 7 days; type: organism-based; details: in vivo, 168 h, time 7 day
[27] = Toxicity in BALB/c mouse assessed as animal death at 15 to 30 mg/kg, ip measured for 18 hrs; type: organism-based; details: in vivo, dose 15-30 mg/kg
Staphylococcus aureus [28] = test: Antibacterial activity against Staphylococcus aureus ATCC 25923 infected in BALB/c mouse assessed as bacterial load in spleen at 30 mg/kg, ip measured after 18 hrs (Rvb ~ 1 x10^7); type: functional

Row | Structure (SMILES) | MIC (Pseudomonas aeruginosa) [µM] | MIC (Staphylococcus aureus [2]) [µM] | Activity (Staphylococcus aureus [3]) | MIC (Staphylococcus aureus [4]) [µM] | MBC (Escherichia coli [5]) [µM] | Activity (Escherichia coli [6]) | MIC (Acinetobacter baumannii) [µM] | Activity (Staphylococcus aureus [7]) | viability at 4 h, up to 60 µM [8] [%] | MIC (Escherichia coli [9]) [µM] | Activity (Escherichia coli [10]) | MBC (Staphylococcus aureus [11]) [µM] | MIC (Staphylococcus aureus [12]) [µM] | Activity (Staphylococcus aureus [13]) | Activity (Staphylococcus aureus [14]) | Activity (Escherichia coli [15]) | Activity (Escherichia coli [16]) | Activity (Staphylococcus aureus [17]) | other results
1 | COC(=O)[C@H](CCCc1cc2ccc3ccc4ccc5ccc1c1c5c4c3c21)NC(=O)CNC(=O)[C@@H](N)CCCCN | 50 (≈ 28.2 µg/mL) | 12.5 (≈ 7.06 µg/mL) | Active | 12.5 (≈ 7.06 µg/mL) | 50 (≈ 28.2 µg/mL) | inactive | 50 (≈ 28.2 µg/mL) | Active | 62 | 50 (≈ 28.2 µg/mL) | Active | 12.5 (≈ 7.06 µg/mL) | 12.5 (≈ 7.06 µg/mL) |  |  |  |  |  | hemolysis at 0.75 h, up to 100 µM [1]: ~5%
2 | COC(=O)[C@H](Cc1cc2ccc3ccc4ccc5ccc1c1c5c4c3c21)NC(=O)[C@H](N)CCCCN | 50 (≈ 24 µg/mL) | 25 (≈ 12 µg/mL) | Active | 25 (≈ 12 µg/mL) | 200 (≈ 95.9 µg/mL) | inactive | 50 (≈ 24 µg/mL) | Active | 3 | 100 (≈ 48 µg/mL) | Active | 50 (≈ 24 µg/mL) | 25 (≈ 12 µg/mL) | Active | Active | Active | Active | Active | 
3 | COC(=O)[C@H](Cc1cc2ccc3ccc4ccc5ccc1c1c5c4c3c21)NC(=O)[C@@H](N)CCCCN.Cl.Cl | 200 | 25 | Active | 12.5 | 50 | inactive | 200 | Active | 71 | 50 | Active | 50 | 25 | Active | Active | Active | Active | Active | Activity (Staphylococcus aureus [18]): Active; Activity (Staphylococcus aureus [19]): Active; Activity (Staphylococcus aureus [20]): ~7 10^4CFU/ml; Activity (Erythrocyte): Non-Toxic; Activity [21]: Non-Toxic; Activity (Staphylococcus aureus [22]): Dose-Dependent Effect; Activity (Staphylococcus aureus [23]): ~1.2 10^6CFU/ml; Activity (Staphylococcus aureus [24]): 100%; Activity (Staphylococcus aureus [25]): ~4.5 10^4CFU/ml; Activity [26]: Non-Toxic; Activity [27]: Non-Toxic; Activity (Staphylococcus aureus [28]): ~6.5 10^5CFU/ml
4 | COC(=O)[C@H](CCCNC(=N)NS(=O)(=O)c1ccc(C)cc1)NC(=O)[C@@H](N)Cc1cc2ccc3ccc4ccc5ccc1c1c5c4c3c21 | > 400 | > 400 |  | > 400 |  |  | > 400 | Active |  | > 400 | Active |  | > 400 |  |  |  |  |  | 
5 | O=C(O)c1cn(C2CC2)c2cc(N3CCNCC3)c(F)cc2c1=O [CIPROFLOXACIN] | 1.56 (≈ 0.517 µg/mL) | 0.39 (≈ 0.129 µg/mL) |  | 0.39 (≈ 0.129 µg/mL) | 0.39 (≈ 0.129 µg/mL) |  | 0.39 (≈ 0.129 µg/mL) |  |  | 0.39 (≈ 0.129 µg/mL) |  | 0.39 (≈ 0.129 µg/mL) | 1.56 (≈ 0.517 µg/mL) |  |  |  |  |  | 
